Experimental data published in ChEMBL document CHEMBL1772993, “Design and synthesis of novel N-hydroxy-dihydronaphthyridinones as potent and orally bioavailable HIV-1 integrase inhibitors” (J Med Chem, 2011).

Assay: Clearance in dog at 1 mg/kg, iv and 4.2 mg/kg, po
Type: ADME, organism-based, Canis lupus familiaris
Conditions: in vivo

clearance | SMILES
30 mL/min/kg | O=C1c2ncc3c(c(CN4CCCCC4)cn3Cc3ccc(F)cc3)c2CCN1O

Assay: Half life in dog at 1 mg/kg, iv and 4.2 mg/kg, po
Type: ADME, organism-based, Canis lupus familiaris
Conditions: in vivo

half-life | SMILES
2.6 h | O=C1c2ncc3c(c(CN4CCCCC4)cn3Cc3ccc(F)cc3)c2CCN1O

Assay: Oral bioavailability in dog at 4.2 mg/kg
Type: ADME, organism-based, Canis lupus familiaris
Conditions: in vivo

bioavailability | SMILES
33% | O=C1c2ncc3c(c(CN4CCCCC4)cn3Cc3ccc(F)cc3)c2CCN1O

Assay: Octanol-buffer distribution coefficient, log D of the compound at pH 7.4
Type: physicochemical
Conditions: not given

logD | SMILES
-0.74 | O=C(O)CCc1cn(Cc2ccc(F)cc2)c2cnc3c(c12)CCN(O)C3=O
1.7 | N#Cc1c(Cn2ccc3c4c(ncc32)C(=O)N(O)CC4)ccc(F)c1Cl
0.89 | CN(C)Cc1cn(Cc2ccc(F)cc2)c2cnc3c(c12)CCN(O)C3=O
0.67 | CN(CCO)Cc1cn(Cc2ccc(F)cc2)c2cnc3c(c12)CCN(O)C3=O
1.29 | CN(C)S(=O)(=O)c1cn(Cc2ccc(F)cc2)c2cnc3c(c12)CCN(O)C3=O
1.67 | CC(C)(O)CCc1cn(Cc2ccc(F)cc2)c2cnc3c(c12)CCN(O)C3=O
2.32 | O=C1c2ncc3c(c(CCC(F)(F)F)cn3Cc3ccc(F)cc3)c2CCN1O
0.77 | O=C1c2ncc3c(ccn3Cc3ncc(F)cc3F)c2CCN1O
1.52 | CN(Cc1cn(Cc2ccc(F)cc2)c2cnc3c(c12)CCN(O)C3=O)CC1CC1
0.76 | CC(=O)N(C)CCCc1cn(Cc2ccc(F)cc2)c2cnc3c(c12)CCN(O)C3=O
1.46 | COCCN(C)Cc1cn(Cc2ccc(F)cc2)c2cnc3c(c12)CCN(O)C3=O
1.39 | O=C1c2ncc3c(ccn3Cc3ccc(F)cc3)c2CCN1O
0.6 | O=C1c2ncc3c(ccn3Cc3ccc(F)cn3)c2CCN1O
1.15 | O=C1c2ncc3c(c(CN4CCCCC4)cn3Cc3ccc(F)cc3)c2CCN1O
1.15 | N#Cc1cc(F)ccc1Cn1ccc2c3c(ncc21)C(=O)N(O)CC3

The next lines start with the compound.

SMILES | logD
O=C1c2ncc3c(c(COCC4CCOCC4)cn3Cc3ccc(F)cc3)c2CCN1O | 1.83
CC1CCN(S(=O)(=O)c2cn(Cc3ccc(F)cc3)c3cnc4c(c23)CCN(O)C4=O)CC1 | 2.14
COCCN(C)S(=O)(=O)c1cn(Cc2ccc(F)cc2)c2cnc3c(c12)CCN(O)C3=O | 1.14
CN(O)C(=O)c1cc2c(CN3CCC[C@H]3C(N)=O)cn(Cc3ccc(F)cc3)c2cn1 | 1.7
O=C1c2ncc3c(c(S(=O)(=O)N4CCCC4)cn3Cc3ccc(F)cc3)c2CCN1O | 1.63
O=C1c2ncc3c(c(S(=O)(=O)N4CCOCC4)cn3Cc3ccc(F)cc3)c2CCN1O | 0.18
O=C1c2ncc3c(c(COCc4ccccc4F)cn3Cc3ccc(F)cc3)c2CCN1O | 2.47
O=C1c2ncc3c(c(COCCc4ccccn4)cn3Cc3ccc(F)cc3)c2CCN1O | 1.56
O=C1c2ncc3c(c(CCCN4CCOCC4)cn3Cc3ccc(F)cc3)c2CCN1O | 0.1
CC(C)OCCOCc1cn(Cc2ccc(F)cc2)c2cnc3c(c12)CCN(O)C3=O | 2.12
O=C1c2ncc3c(c(CCCOC4CCOCC4)cn3Cc3ccc(F)cc3)c2CCN1O | 2.1
CN(O)C(=O)c1cc2ccn(Cc3ccc(F)cc3)c2cn1 | 2.04
O=C1c2ncc3c(c(CN4CCC(F)(F)C4)cn3Cc3ccc(F)cc3)c2CCN1O | 2.02
O=C1c2ncc3c(c(COCCCc4ccccn4)cn3Cc3ccc(F)cc3)c2CCN1O | 2.15
O=C1c2ncc3c(c(COCc4ccccn4)cn3Cc3ccc(F)cc3)c2CCN1O | 1.63

Assay: Clearance in dog
Type: ADME, organism-based, Canis lupus familiaris
Conditions: in vivo

clearance | SMILES
15 mL/min/kg | CN(O)C(=O)c1cc2c(CN3CCC[C@H]3C(N)=O)cn(Cc3ccc(F)cc3)c2cn1

Assay: Volume of distribution at steady state in dog at 1 mg/kg, iv and 4.2 mg/kg, po
Type: ADME, organism-based, Canis lupus familiaris
Conditions: in vivo, read-out: Vdss

Vd | SMILES
6.7 L/kg | O=C1c2ncc3c(c(CN4CCCCC4)cn3Cc3ccc(F)cc3)c2CCN1O
